pIC50: −log10 of the molar value.
Assays:
[1] = Inhibitory concentration against protein phosphatase 1 (PP1) using pNPP assay
[2] = Inhibitory concentration against protein phosphatase 1 (PP1) using phosphorylase-a assay

Row | Compound | pIC50 [1] | pIC50 [2]
1 | CO[C@@H](Cc1ccccc1)[C@@H](C)/C=C(C)/C=C/[C@H](NC(C)=O)[C@H](C)C(=O)N1C[C@H](O[Si](C(C)C)(C(C)C)C(C)C)C[C@@H]1C(=O)O [(2R,4R)-1-((4E,6E)-(2S,3S,8S,9S)-3-Acetylamino-9-methoxy-2,6,8-trimethyl-10-phenyl-deca-4,6-dienoyl)-4-triisopropylsilanyloxy-pyrrolidine-2-carboxylic acid] | < 4.00 | –
2 | CO[C@@H](Cc1ccccc1)[C@@H](C)/C=C(C)/C=C/[C@H](NC(C)=O)[C@H](C)C(=O)N1C[C@H](C(=O)O)C[C@@H]1C(=O)O [(2R,4R)-1-((4E,6E)-(2S,3S,8S,9S)-3-Acetylamino-9-methoxy-2,6,8-trimethyl-10-phenyl-deca-4,6-dienoyl)-pyrrolidine-2,4-dicarboxylic acid] | < 4.00 | –
3 | CO[C@@H](Cc1ccccc1)[C@@H](C)/C=C(C)/C=C/[C@H](NC(C)=O)[C@H](C)C(=O)N1C[C@@H](C(=O)O)C[C@@H]1C(=O)O [(2R,4S)-1-((4E,6E)-(2S,3S,8S,9S)-3-Acetylamino-9-methoxy-2,6,8-trimethyl-10-phenyl-deca-4,6-dienoyl)-pyrrolidine-2,4-dicarboxylic acid] | < 4.00 | –
4 | CO[C@@H](Cc1ccccc1)[C@@H](C)/C=C(C)/C=C/[C@H](NC(C)=O)[C@H](C)C(=O)N1[C@@H](C(=O)O)CC[C@H]1C(=O)O [(2R,5S)-1-((4E,6E)-(2S,3S,8S,9S)-3-Acetylamino-9-methoxy-2,6,8-trimethyl-10-phenyl-deca-4,6-dienoyl)-pyrrolidine-2,5-dicarboxylic acid] | < 4.30 | –
5 | CO[C@@H](Cc1ccccc1)[C@@H](C)/C=C(C)/C=C/[C@H](NC(C)=O)[C@H](C)C(=O)N1C[C@H](C(=O)O)C[C@H]1C(=O)O [(2S,4R)-1-((4E,6E)-(2S,3S,8S,9S)-3-Acetylamino-9-methoxy-2,6,8-trimethyl-10-phenyl-deca-4,6-dienoyl)-pyrrolidine-2,4-dicarboxylic acid] | < 4.00 | –
6 | CO[C@@H](Cc1ccccc1)[C@@H](C)/C=C(C)/C=C/[C@H](NC(C)=O)[C@H](C)C(=O)N1[C@H](C(=O)O)CC[C@H]1C(=O)O [(2S,5S)-1-((4E,6E)-(2S,3S,8S,9S)-3-Acetylamino-9-methoxy-2,6,8-trimethyl-10-phenyl-deca-4,6-dienoyl)-pyrrolidine-2,5-dicarboxylic acid] | < 4.30 | –
7 | CO[C@@H](Cc1ccccc1)[C@@H](C)/C=C(C)/C=C/[C@H](NC(C)=O)[C@H](C)C(=O)NCC(=O)O [((4E,6E)-(2S,3S,8S,9S)-3-Acetylamino-9-methoxy-2,6,8-trimethyl-10-phenyl-deca-4,6-dienoylamino)-acetic acid] | – | 5.25
8 | COC(=O)[C@H]1CCCN1C(=O)[C@@H](C)[C@H](/C=C/C(C)=C/[C@H](C)[C@H](Cc1ccccc1)OC)NC(C)=O [(R)-1-((4E,6E)-(2S,3S,8S,9S)-3-Acetylamino-9-methoxy-2,6,8-trimethyl-10-phenyl-deca-4,6-dienoyl)-pyrrolidine-2-carboxylic acid methyl ester] | < 4.00 | –
9 | CO[C@@H](Cc1ccccc1)[C@@H](C)/C=C(C)/C=C/[C@H](NC(C)=O)[C@H](C)C(=O)N1CCC[C@@H]1C(=O)O [(R)-1-((4E,6E)-(2S,3S,8S,9S)-3-Acetylamino-9-methoxy-2,6,8-trimethyl-10-phenyl-deca-4,6-dienoyl)-pyrrolidine-2-carboxylic acid] | < 4.26 | –
10 | CC(=O)N[C@@H](/C=C/C(C)=C/CCCc1ccccc1)[C@H](C)C(=O)N[C@H](C)C(=O)O [(R)-2-((4E,6E)-(2S,3S)-3-Acetylamino-2,6-dimethyl-10-phenyl-deca-4,6-dienoylamino)-propionic acid] | < 4.00 | –
11 | CC(=O)N[C@@H](/C=C/C(C)=C/c1ccc(-c2ccccc2)cc1)[C@H](C)C(=O)N[C@H](C)C(=O)O [(R)-2-((4E,6E)-(2S,3S)-3-Acetylamino-7-biphenyl-4-yl-2,6-dimethyl-hepta-4,6-dienoylamino)-propionic acid] | < 4.00 | –
12 | CO[C@@H](Cc1ccccc1)[C@@H](C)/C=C(C)/C=C/[C@H](NC(C)=O)[C@H](C)C(=O)N[C@H](C)C(=O)O [(R)-2-((4E,6E)-(2S,3S,8S,9S)-3-Acetylamino-9-methoxy-2,6,8-trimethyl-10-phenyl-deca-4,6-dienoylamino)-propionic acid] | 4.60 | 6.00
13 | CC(=O)N[C@@H](/C=C/C(C)=C/c1ccccc1Cc1ccccc1)[C@H](C)C(=O)N[C@H](C)C(=O)O [(R)-2-[(4E,6E)-(2S,3S)-3-Acetylamino-7-(2-benzyl-phenyl)-2,6-dimethyl-hepta-4,6-dienoylamino]-propionic acid] | < 4.00 | –
14 | COC(=O)[C@@H]1CCCN1C(=O)[C@@H](C)[C@H](/C=C/C(C)=C/[C@H](C)[C@H](Cc1ccccc1)OC)NC(C)=O [(S)-1-((4E,6E)-(2S,3S,8S,9S)-3-Acetylamino-9-methoxy-2,6,8-trimethyl-10-phenyl-deca-4,6-dienoyl)-pyrrolidine-2-carboxylic acid methyl ester] | < 4.00 | –
15 | CO[C@@H](Cc1ccccc1)[C@@H](C)/C=C(C)/C=C/[C@H](NC(C)=O)[C@H](C)C(=O)N1CCC[C@H]1C(=O)O [(S)-1-((4E,6E)-(2S,3S,8S,9S)-3-Acetylamino-9-methoxy-2,6,8-trimethyl-10-phenyl-deca-4,6-dienoyl)-pyrrolidine-2-carboxylic acid] | < 4.00 | –
16 | CO[C@@H](Cc1ccccc1)[C@@H](C)/C=C(C)/C=C/[C@H](NC(C)=O)[C@H](C)C(=O)N[C@@H](C)C(=O)O [(S)-2-((4E,6E)-(2S,3S,8S,9S)-3-Acetylamino-9-methoxy-2,6,8-trimethyl-10-phenyl-deca-4,6-dienoylamino)-propionic acid] | – | 3.77
17 | CO[C@@H](Cc1ccccc1)[C@@H](C)/C=C(C)/C=C/[C@H](NC(C)=O)[C@H](C)C(=O)N1CCCC1 [N-[(2E,4E)-(1S,6S,7S)-7-Methoxy-4,6-dimethyl-1-((S)-1-methyl-2-oxo-2-pyrrolidin-1-yl-ethyl)-8-phenyl-octa-2,4-dienyl]-acetamide] | < 4.00 | –
18 | CO[C@@H](Cc1ccccc1)[C@@H](C)/C=C(C)/C=C/[C@H](NC(C)=O)[C@H](C)C(=O)N(CC(=O)O)CC(=O)O [[((4E,6E)-(2S,3S,8S,9S)-3-Acetylamino-9-methoxy-2,6,8-trimethyl-10-phenyl-deca-4,6-dienoyl)-carboxymethyl-amino]-acetic acid] | < 4.00 | –

Reference: BindingDB's records for doi:10.1016/s0960-894x(03)00588-2 (University of California Irvine, 2003)
